Results on one compound are retold here after patent US20140288026A1, “IN[…]” (MAGNA E[…]., priority 2011, published 2014).

This data set in a line: Hydrolysis of dilute aqueous insecticide solution (EPA OPPT 835.2130 Hydrolysis as a Function of pH and Temperature). The data set is classed as physicochemical. The following applies: for Bifenthrin remaining: same solution plus 220ppm polymer particles (55% solids vinyl acetate-ethylene copolymer latex, Tg 10° C.). The protocol:
In fact, we have made dilute aqueous solutions of Bifenthrin (0.0895 ppm at pH 11.0) in accordance with EPA Fate, Transport and Transformation Test Guidelines OPPT 835.2130 Hydrolysis as a Function of pH and Temperature. After 5 hours at 25° C. only 45% of the insecticide could be detected in the solution and after 15 hours only 12% remained.

For `Cc1c(COC(=O)[C@@H]2[C@H](/C=C(\Cl)C(F)(F)F)C2(C)C)cccc1-c1ccccc1` (racemic) [Bifenthrin], the “insecticide detected in the solution” value (0.0895 ppm aqueous solution at pH 11.0, 25° C., after 5 hours, no polymer particles) is given as 45%. In addition, the “insecticide remaining in the solution” value (0.0895 ppm aqueous solution at pH 11.0, 25° C., after 15 hours, no polymer particles) is on record as 12%. In addition, the Bifenthrin remaining (after 5 hours) turned out to be 95% and the Bifenthrin remaining (after 15 hours) came to 93%.
